According to patent US20100035932A1, “NOVEL FORMYL PEPTIDE RECEPTOR LIKE 1 AGONISTS THAT INDUCE MACROPHAGE TUMOR NECROSIS FACTOR ALPHA AND COMPUTATIONAL STRUCTURE-ACTIVITY RELATIONSHIP ANALYSIS OF THEREOF” (priority 2008, published 2010):

Key:
human neutrophils = experiment: Ca2+ mobilization in human neutrophils (FLIPR Calcium 3); conditions: Neutrophil, read-out: [Ca2+]i EC50
J774.A1 macrophages [1] = experiment: TNF-α production in J774.A1 macrophages (ELISA); assay type: cell-based, murine; conditions: Mus musculus, J774.A1, 24 h; relative fold of activation compared to vehicle (DMSO) control for 50 μM compound; N.A. = no activity was observed; read-out: TNF-α production
J774.A1 macrophages [2] = experiment: cells; conditions: Mus musculus, J774.A1, read-out: Ca2+ Mobilization EC50, Murine Mφ
Experimental: Murine macrophage J774.A1 cells were cultured in DMEM supplemented with 10% (v/v) heat-inactivated fetal bovine serum (FBS), 10 mM HEPES, 100 μg/ml streptomycin, and 100 U/ml penicillin. Cells were grown to confluence in sterile tissue culture flasks and gently detached by scraping. […] All cell cultures were grown at 37° C. in a humidified atmosphere containing 5% CO2. Cell number and viability were assessed microscopically using trypan blue exclusion.

CCOc1cc(/C=N/NC(=O)c2ccc3c(c2)OCCO3)cc(Br)c1O [Compound 21]
EC50 (human neutrophils): 21.9 µM | fold induction at 50 µM (J774.A1 macrophages [1]): < 2

O=C(N/N=C/c1ccc(-c2cccc(Cl)c2Cl)o1)c1ccccc1 [Compound 5]
EC50 (human neutrophils): 2.3 µM | fold induction at 50 µM (J774.A1 macrophages [1]): 7 to 10

O=C(N/N=C1\C(=O)N(CCc2ccccc2)c2ccccc21)c1ccc2c(c1)OCO2 [Compound 17]
EC50 (human neutrophils): 8.9 µM | fold induction at 50 µM (J774.A1 macrophages [1]): < 2

O=C(N/N=C/c1ccco1)c1ccc(Br)cc1O [Compound 35]
EC50 (human neutrophils): 22.7 µM

Cc1ccc(C(=O)N/N=C/c2ccc(-c3cc(Cl)c(Cl)cc3Cl)o2)cn1 [Compound 10]
EC50 (human neutrophils): 32 µM | fold induction at 50 µM (J774.A1 macrophages [1]): < 5

C[C@H](CCC(=O)O)C[C@H](C)C[C@H](C)C(=O)/C=C(\O)[C@H](C)C[C@H](C)C/C=C/[C@@H](C)[C@@H](O)[C@@H](C)[C@@H](O)C[C@@H]1CC[C@@](C)([C@H]2CC[C@@](C)([C@@H](C)O)O2)O1 [ionomycin, reference compound]
EC50 (J774.A1 macrophages [2]): 0.58 ± 0.3 µM

CN(C)c1ccc(/C=N/NC(=O)c2ccc3c(c2)OCO3)cc1 [Compound 34]
EC50 (human neutrophils): 17.9 µM

O=C(N/N=C1\C(=O)N(Cc2cccc3ccccc23)c2ccccc21)c1ccc2c(c1)OCO2 [Compound 29]
EC50 (human neutrophils): 9.3 µM

COc1ccc(/C=N/NC(=O)c2ccc3c(c2)OCO3)c(OC)c1 [Compound 38]
EC50 (human neutrophils): 28.1 µM

O=C(N/N=C/c1cc(Br)cc(Br)c1OC(=O)c1cccc(F)c1)c1ccc2c(c1)OCO2 [Compound 20]
EC50 (human neutrophils): 18.9 µM | fold induction at 50 µM (J774.A1 macrophages [1]): < 2
